Experimental data reported in PubChem BioAssay AID1963971 (Molecular Pharmacology Branch, DTP, NCI, 2024).
pIC50: −log10 of the molar value.

Tested on: 953936-095-R-J2-PDC spheroids with HUVEC/MSC, viability
Assay: Anticancer human tumor 953936-095-R-J2-PDC patient-derived cervical squamous cell carcinoma cell line growth inhibition [PI3K]
Conditions: for pIC50: curve of first compound; for viability, T/C: stronger effect = lower value
Description: Combinatorial screen of targeted agents with the PI3K inhibitors inavolisib, alpelisib, duvelisib, and copanlisib in multi-cell type tumor spheroids
A high-throughput screen of multi-cell type tumor spheroids was designed to identify active combinations of targeted small molecules and PI3K pathway inhibitors. Complex spheroids include a stromal component modeled by human endothelial cells (HUVEC) and fibroblasts modeled by human mesenchymal stem cells (MSCs). The concentration ranges selected for each drug and investigational agent were based upon clinically achievable concentrations if the clinical Cmax of the agent was known.
Compounds. The drugs and investigational agents: inavolisib (NSC800729), alpelisib (NSC765974), duvelisib (NSC772469), copanlisib (NSC816437), ipatasertib (NSC767898), afuresertib (NSC778305), talazoparib (NSC767125), sapanisertib (NSC764658), selumetinib (NSC741078), tovorafenib (DAY101, NSC766906), vemurafenib (NSC761431), ravoxertinib (NSC781343), sotorasib (NSC818433), MRTX1133 (NSC 836407), abemaciclib (NSC 768073), palbociclib (NSC758247), venetoclax (NSC 766270), SY5609 (NSC837396), enzalutamide (NSC755605), and darolutamide (NSC825331), were obtained from the National Cancer Institute (NCI) Developmental Therapeutics Program Chemical Repository. The FDA-approved anticancer drug set is available from the NCI Developmental Therapeutics Program. […] The stock solutions were prepared in dimethyl sulfoxide (DMSO, Sigma-Aldrich, St. Louis, MO, cat. D2650) at 800-fold the tested concentration and stored at -70 degrees C prior to their use. All drugs and investigational agents were tested over a range starting from a high concentration at or near the clinical Cmax and decreasing in half-log increments. If the clinical Cmax for an agent had not been determined, the highest concentration tested was 10 microM.
Cell Culture. All cells were maintained in an incubator at 37 degrees C and 5% CO2 with 95% humidity. The PDC lines were cultured according to standard operating procedures established by the NCI PDMR (https://pdmr.cancer.gov/sops/default.htm). All PDCs were thawed and cultured in Matrigel-coated flasks prepared with a working solution of 1X Ham's F-12 nutrient mix, without supplementation (Invitrogen, Waltham, MA, cat. 11765054), 100 U/mL penicillin-streptomycin (Invitrogen, cat. 15140122), and 2.5% Matrigel (Corning Inc., Corning, NY, cat. 354248) for the first three passages. The 354836-022-R-J1-PDC, 475296-252-R-J1-PDC, and 997726-040-R-J2-PDC lines were cultured in 6A media, which includes advanced DMEM/F-12 (Thermo Fisher Scientific, cat. 12634028), 10 mM HEPES (Thermo Fisher Scientific, cat. 15630080), 1X GlutaMAX supplement (Thermo Fisher Scientific, cat. 35050061), 0.1 mg/mL primocin (InvivoGen, San Diego, CA, cat. ant-pm-2), 10% defined fetal bovine serum, heat inactivated (HyClone Laboratories Inc., Logan, UT, cat. SH30070.03HI), 50% L-WRN conditioned media (ATCC, cat. CRL-3276), 1.25 mM N-Acetyl-L-cysteine (Sigma-Aldrich, cat. A9165), 10 mM nicotinamide (Sigma-Aldrich, cat. N0636), 1X B-27 supplement (Thermo Fisher Scientific, cat. 17504044), 1X N-2 supplement (Thermo Fisher Scientific, cat. 17502048), and 10 microM Y-27632 dihydrochloride (Tocris Bioscience, Bristol, United Kingdom, cat. 1254). The 624824-186-R-J2-PDC line was cultured in 6C/Colon 1B media, which includes all 6A media components plus 50 ng/mL human EGF recombinant protein (Thermo Fisher Scientific, cat. PHG0311). […]

[1] = second compound 0.00316 µM, first compound 0.0316 µM
[2] = second compound 0.00316 µM, first compound 0.1 µM
[3] = second compound 0.01 µM, first compound 0.0316 µM
[4] = second compound 0.01 µM, first compound 0.1 µM
[5] = second compound 0.0316 µM, first compound 0.0316 µM
[6] = second compound 0.0316 µM, first compound 0.1 µM
[7] = second compound 0.1 µM, first compound 0.0316 µM
[8] = second compound 0.1 µM, first compound 0.1 µM
[9] = second compound 0.316 µM, first compound 0.0316 µM
[10] = second compound 0.316 µM, first compound 0.1 µM
[11] = second compound 1 µM, first compound 0.0316 µM
[12] = second compound 1 µM, first compound 0.1 µM
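Note: spheroids exposed to compounds for seven days before read-out.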

CC(C)n1nc(-c2ccc3oc(N)nc3c2)c2c(N)ncnc21 + CC(Nc1ccc2c(c1)OCCn1cc(N3C(=O)OCC3C(F)F)nc1-2)C(N)=O
pIC50 (second compound 0.00316 µM): 7.56
pIC50 (second compound 0.01 µM): 7.64
pIC50 (second compound 0.0316 µM): 7.85
pIC50 (second compound 0.1 µM): 8.85
pIC50 (second compound 0.316 µM): > 9.50
pIC50 (second compound 1 µM): > 9.50
viability, T/C (second compound 0.00316 µM, first compound 0.000316 µM): 92.9%
viability, T/C (second compound 0.00316 µM, first compound 0.001 µM): 93.3%
viability, T/C (second compound 0.00316 µM, first compound 0.00316 µM): 81.3%
viability, T/C (second compound 0.00316 µM, first compound 0.01 µM): 73.7%
viability, T/C [1]: 46.2%
viability, T/C [2]: 15.5%
viability, T/C (second compound 0.01 µM, first compound 0.000316 µM): 87.1%
viability, T/C (second compound 0.01 µM, first compound 0.001 µM): 88.8%
viability, T/C (second compound 0.01 µM, first compound 0.00316 µM): 79.1%
viability, T/C (second compound 0.01 µM, first compound 0.01 µM): 67.6%
viability, T/C [3]: 43.6%
viability, T/C [4]: 15.2%
viability, T/C (second compound 0.0316 µM, first compound 0.000316 µM): 73%
viability, T/C (second compound 0.0316 µM, first compound 0.001 µM): 71.9%
viability, T/C (second compound 0.0316 µM, first compound 0.00316 µM): 73.4%
viability, T/C (second compound 0.0316 µM, first compound 0.01 µM): 53.5%
viability, T/C [5]: 35.7%
viability, T/C [6]: 12.1%
viability, T/C (second compound 0.1 µM, first compound 0.000316 µM): 57.7%
viability, T/C (second compound 0.1 µM, first compound 0.001 µM): 52.5%
viability, T/C (second compound 0.1 µM, first compound 0.00316 µM): 44.3%
viability, T/C (second compound 0.1 µM, first compound 0.01 µM): 34%
viability, T/C [7]: 21.6%
viability, T/C [8]: 7.99%
viability, T/C (second compound 0.316 µM, first compound 0.000316 µM): 34.1%
viability, T/C (second compound 0.316 µM, first compound 0.001 µM): 31.2%
viability, T/C (second compound 0.316 µM, first compound 0.00316 µM): 28.5%
viability, T/C (second compound 0.316 µM, first compound 0.01 µM): 22.7%
viability, T/C [9]: 13.1%
viability, T/C [10]: 6.47%
viability, T/C (second compound 1 µM, first compound 0.000316 µM): 20.8%
viability, T/C (second compound 1 µM, first compound 0.001 µM): 21.7%
viability, T/C (second compound 1 µM, first compound 0.00316 µM): 18.3%
viability, T/C (second compound 1 µM, first compound 0.01 µM): 16.3%
viability, T/C [11]: 9.69%
viability, T/C [12]: 5.32%

CCCS(=O)(=O)Nc1ccc(F)c(C(=O)c2c[nH]c3ncc(-c4ccc(Cl)cc4)cc23)c1F + CC(Nc1ccc2c(c1)OCCn1cc(N3C(=O)OCC3C(F)F)nc1-2)C(N)=O
pIC50 (second compound 0.00316 µM): 5.28
pIC50 (second compound 0.01 µM): 5.32
pIC50 (second compound 0.0316 µM): 5.32
pIC50 (second compound 0.1 µM): 5.49
pIC50 (second compound 0.316 µM): > 7.50
pIC50 (second compound 1 µM): > 7.50
viability, T/C [1]: 93.9%
viability, T/C [2]: 101%
viability, T/C (second compound 0.00316 µM, first compound 0.316 µM): 104%
viability, T/C (second compound 0.00316 µM, first compound 1 µM): 111%
viability, T/C (second compound 0.00316 µM, first compound 3.16 µM): 87.3%
viability, T/C (second compound 0.00316 µM, first compound 10 µM): 0.81%
viability, T/C [3]: 91.7%
viability, T/C [4]: 94.8%
viability, T/C (second compound 0.01 µM, first compound 0.316 µM): 96.4%
viability, T/C (second compound 0.01 µM, first compound 1 µM): 98.7%
viability, T/C (second compound 0.01 µM, first compound 3.16 µM): 77.1%
viability, T/C (second compound 0.01 µM, first compound 10 µM): 0.48%
viability, T/C [5]: 82%
viability, T/C [6]: 78.7%
viability, T/C (second compound 0.0316 µM, first compound 0.316 µM): 78.7%
viability, T/C (second compound 0.0316 µM, first compound 1 µM): 81.9%
viability, T/C (second compound 0.0316 µM, first compound 3.16 µM): 75.6%
viability, T/C (second compound 0.0316 µM, first compound 10 µM): 3.87%
viability, T/C [7]: 56.3%
viability, T/C [8]: 58.7%
viability, T/C (second compound 0.1 µM, first compound 0.316 µM): 59%
viability, T/C (second compound 0.1 µM, first compound 1 µM): 56.1%
viability, T/C (second compound 0.1 µM, first compound 3.16 µM): 51.5%
viability, T/C (second compound 0.1 µM, first compound 10 µM): 0.85%
viability, T/C [9]: 34%
viability, T/C [10]: 34%
viability, T/C (second compound 0.316 µM, first compound 0.316 µM): 35.5%
viability, T/C (second compound 0.316 µM, first compound 1 µM): 35.8%
viability, T/C (second compound 0.316 µM, first compound 3.16 µM): 27.4%
viability, T/C (second compound 0.316 µM, first compound 10 µM): 0.86%
viability, T/C [11]: 21.7%
viability, T/C [12]: 23.6%
viability, T/C (second compound 1 µM, first compound 0.316 µM): 23.1%
viability, T/C (second compound 1 µM, first compound 1 µM): 26%
viability, T/C (second compound 1 µM, first compound 3.16 µM): 17.9%
viability, T/C (second compound 1 µM, first compound 10 µM): 0.87%
